Assay results from patent US20240277695A1, “FOXO INHIBITORS FOR USE IN THE TREATMENT OF DISEASES CAUSED BY ABNORMAL PROCESSING OF TDP-43 AND/OR FUS PROTEINS” (Administración General de la Comunidad Autónoma de Euskadi, priority 2020, published 2024).
Entries after “also recorded” stand apart in the source; their conditions may differ.

Tests used:
[1] = tested on: Drosophila with motor neuron-specific (OK6 promoter) Tbph silencing; assay: Locomotor activity (climbing) assay in motor neuron-specific Tbph/Caz knockdown flies; type: in vivo, Drosophila melanogaster; details: 30 μM, 20 days-old flies
From the text: FIG. 9. FOXO1inh rescues (AS1842856) impaired climbing capacity induced by motor neuron-specific knockdown of ALS-causing ortholog genes in Drosophila melanogaster. Represented two different models of Tbph silence (silencing two different locus of Tbph gene) and one Caz (FUS ortholog) A) Locomotor activity of motor neuron specific (OK6 promoter) Tbph silencing Drosophila melanogaster using iTbph(p(KK08354)) plasmid. Generated genotypes; UAS-Dicer2-+-OK6-GAL4 (control) and UAS-Dicer2-iTbph^p(KK08354)-OK6-GAL4 (iTbph^p(KK08354)). B) Locomotor activity of motor neuron specific (OK6 promoter) Tbph silencing Drosophila melanogaster using iTbph(attP40) plasmid.; UAS-Dicer2-+-OK6-GAL4 (control) and UAS-Dicer2-iTbph^(attP40)-OK6-GAL4 (iTbph^(attP40)). C) Locomotor activity of motor neuron specific (OK6 promoter) Tbph silencing Drosophila melanogaster using iCaz plasmid.; UAS-Dicer2-+-OK6-GAL4 (control) and UAS-Dicer2-iCaz-OK6-GAL4 (iCaz). Assays were performed at 20 days-old flies and repeated 5 times each tube (5 flies/tube). Data are expressed as the percentage of flies passing for each group.
Two-way ANOVA was performed together Bonferroni post-hoc multiple comparison (*p<0.05; **p<0.01; ***p<0.001) or T-test for two groups comparisons (*p<0.05; **p<0.01; ***p<0.001). Values are expressed as mean+SD.
One of the most important features of ALS is motor neuron degeneration. […]

[2] = tested on: TDP-43 or FUS-silenced human immortalized myoblasts (cell line 8220); assay: Metabolic flux analysis (ECAR/OCR) in TDP-43 or FUS-silenced myoblasts; type: cell-based; details: 30 nM
From the text: The translocation of TDP-43 to cytoplasm is involved in myoblast differentiation and myotube generation (see reference 14). […] Thus, given the potential implication of TDP-43 and FUS in myogenesis, we modelled the loss-of-function of these genes in the human immortalized myoblast cell line 8220 by treating these cells with shRNA-expressing lentiviral particles for TDP-43 or FUS, and further analyzed any change on cell morphology, growth and myogenic capacity (FIG. 1D).
Molecular signaling factors and reprogramming of energy metabolism are considered crucial regulators of myogenesis during adult muscle regeneration. Since TDP-43 controls skeletal muscle glucose homeostasis, we wanted to investigate whether myogenic defects induced by loss of TDP-43, and in extension of FUS, may be mediated by abnormalities of glucose metabolism. Regarding the latest, various studies conducted in Drosophila, zebrafish and mouse myoblasts have highlighted glucose metabolism as part of the core myogenic program because of its ability to provide both the rapid source of energy and the building blocks (amino acids and nucleotides) that are required for biomass production during the formation of syncytial muscles. […]

[3] = tested on: primary myoblasts from patients with ALS; assay: Myogenic capacity of primary myoblasts from patients with ALS; type: cell-based, human; details: 30 nM; primary myoblasts from sporadic and familial ALS patients
From the text: We looked at preliminary links between the findings in genetically-induced myoblasts and features of myoblasts from patients with ALS. To this aim, we cultured primary myoblasts obtained from muscle biopsies of two patients with ALS (patient 1 is sporadic [sALS] and patient 2 is familial [fALS]) and one control. […] Changes in TDP-43 localization were accompanied by an altered subcellular distribution of FoxO1, as reflected by increased levels of FoxO1 and FoxO3 in nuclei (FIG. 6A,C) and enhanced nuclear-to-cytosolic ratio in both patients (FIG. 6C). Remarkably, nuclear localizations of TDP-43 and FoxO1 were inversely associated in patient 2 (FIG. 6D).
To study whether these pathological features were linked to functional outcomes of ALS muscle, we studied the myogenic capacity of ALS myoblasts and the effect of FoxO inhibition.

CCn1cc(C(=O)O)c(=O)c2c(N)c(F)c(NC3CCCCC3)cc21 [AS1842856] was tested, and the “locomotor impairments in climbing assay” value [1] was “rescues; also recorded: fully rescue locomotor impairments”, the “repressed glycolytic traits (glucose- and oligomycin-stimulated ECAR)” value ([2]; proliferating myoblasts silenced for either TDP-43 or FUS) was “significant recovery” and the “mitochondrial ATP production” value ([2]; shTDP-43 and shFUS-treated myoblasts) was “enhanced mitochondrial ATP production; also recorded: improved the mitochondrial ATP production”. The myogenic abnormalities [3] was “alleviated”.
